These results are taken from patent publication US20150376570A1, “METHODS AND COMPOSITIONS FOR PRODUCING INDUCED HEPATOCYTES” (GENENTECH, INC., priority 2012, published 2015).

In one data set the test system is BJ fibroblasts. Nature of the data set: Albumin and α-fetoprotein gene expression by qPCR in transfected fibroblasts. The conditions noted are these: Example 13, 5 consecutive days, 6-well plate. It is filed as cell-based, human. The text has this: RPL19 (Hs02338565_gH) was used for endogenous control assays. The ViiA 7 Real Time PCR System (Applied Biosystems) was used to perform and analyze qPCRs. If gene expression was not detectable in a sample, an artificial cycle threshold of 41 was applied to allow for comparison.
Reprogramming experiments were generally performed as follows. Initial reprogramming experiments used mRNA pools containing six different mRNAs encoding the following six transcription factors: FOXA1, FOXA2, FOXA3, HNF4A, HNF1A, and GATA4. This six transcription factor pool containing mRNAs encoding FOXA1, FOXA2, FOXA3, HNF4A, HNF1A, and GATA4 is herein referred to as 6TF. The 6TF mRNA mixture used in these studies contained the mRNA molecules at a molar ratio of 1:1:1:1:1:1. […]
Albumin (ALB) and α-fetoprotein (AFP) are genes expressed almost exclusively in cells of hepatocyte lineage. […] After 5 days and 9 days, gene expression levels for albumin and α-fetoprotein in the cells were determined by qPCR using methods as described above.
BJ fibroblasts were transfected once daily with 6TF mRNA mixture (See Table 6 above for 6TF mRNA cocktail composition) or each of the 5TF mRNA mixtures (described above and shown in Table 6) for 5 consecutive days, as described above. After 5 days, gene expression levels for albumin and AFP in the cells were determined by qPCR using methods as described above. […]
(In general: Real-time PCR tracks product formation cycle by cycle.)

The test system of another data set is TLR3. The data set can be described thus: TLR3 activation on 11TF transfection with or without Poly I:C. It is filed as cell-based, human. The note with it: daily transfection and/or daily Poly I:C supplementation. Here is the method:
(See Lee et al., (2012) Cell 151:547-558.) Experiments were performed to examine whether 11TF mRNA mixture could activate TLR3 and to determine whether further activation would increase hepatic induction.
Experiments were performed to test whether daily supplementation with Poly I:C, a known TLR3 agonist, accompanying 11TF mRNA mixture transfection would further increase expression of albumin and AFP.

On to HNF1A: mRNA encoding only HNF1A, for which, in the data set on BJ fibroblasts, the “AFP gene expression vs non-transfected control fibroblasts” value is reported as “slightly above” and the “albumin gene expression vs non-transfected control fibroblasts” value is listed as “slightly above”.

For the substance Poly I:C, the “TLR3 expression above control” value in the data set on TLR3 is reported as “did not activate TLR3”.
